Type in all cases: cell-based, human
One series relates to p21. In words: qPCR of p21 mRNA after TSA. The settings on record: TSA 0.2 μM, D283, Daoy and MB 100 primary cells, n=3. How it is done: (§1) RNA was isolated from cells and tissues with Triazol (Invitrogen, Carlsbad, Calif.). Real-time PCR was performed on the ABI PRISM 7900 HT detection system using Taq man reagents (Applied Biosystems, Foster City, Calif.) per the manufacturer's recommendations. Gene expression was determined with Assay on Demand gene expression reagents (Applied Biosystems, Foster City, Calif.). All assays were done in triplicate.

A further series relates to WIF 1. Put plainly: Expression microarray, TSA fold increase of WIF1. The settings on record: D283 medulloblastoma cells. The source says:
(§2) RNA from vehicle and TSA treated D283 cells was reverse-transcribed and hybridized to the ABI 1700 Human Genome Expression Microarray containing 33,202 gene-specific 60-mer oligonucleotide probes. Data was quantile normalized and t-test was applied to each gene for statistical significance. Differential gene expression was quantified using the Storey q-value method and data visualized using Spotfire software.
(§3) The inventors performed studies that determined that antagonists of Wnt signalling are epigenetically silenced in medulloblastoma.
(§4) The D283 cell line was cultured with either 0.2 μM TSA or DMSO for 9 hours to generate gene expression profiles in response to TSA. Total RNA was extracted from treated cells using Trizol (Invitrogen, Carlsbad, Calif.). RNA was further purified using the RNeasy kit (QIAGEN, Valencia, Calif.) per manufacturer's protocol and purity of RNA was determined by the Agilent Bioanalyzer. 2 μg of total RNA was reverse-transcribed with the Chemiluminescent RT-IVT Labeling Kit (Applied Biosystems, Foster City, Calif.) and hybridized to a 60-mer whole genome oligonucleotide microarray (Applied Biosystems, Foster City, Calif.) containing 33,202 probes representing 29,098 genes per manufacturer's protocol. […] Differential gene expression was quantified using Storey q-value method (Storey and Tibshirani, 2003, Proc Natl Acad Sci USA 100, 9440-9445). […]

In series [1] the test system is D283 medulloblastoma cells. In words: Cell viability of D283 cells treated with TSA (MTT assay, washout experiments). How it is done: The inventors tested cell viability of D283 medulloblastoma cells treated with increasing doses of the HDAC inhibitor TSA (FIG. 1A). They also tested cell viability was measured by an MTT assay.
The inventors also determined the minimum time of TSA exposure needed to induce cell death (FIG. 1B). D283 cells were exposed to TSA for various time points and the media replaced for an additional 24 h prior to assaying for cell viability.
To identify genes regulated by changes in histone H3 K9 acetylation status, the inventors first determined the optimal dose and timing for treating D283 medulloblastoma cells with TSA. The D283 cell line was chosen since it is widely used as a cell model of medulloblastoma and is well characterized. […] For microarray studies, the inventors treated D283 cells with 0.2 μM TSA for 9 hours. […] To confirm the microarray analysis, real-time quantitative PCR (qPCR) was performed on nine randomly selected genes (FIG. 12A).

The next series concerns sFRP 1. Put plainly: Expression microarray, TSA fold increase of sFRP1. The note with it: D283 medulloblastoma cells.
Description: as §2, §3, §4

The test system of another series is histone acetylation. Put plainly: Western blot analysis of histone acetylation. The note with it: D283 cells, 9 hours of TSA exposure. In general terms: A western blot detects proteins with antibodies after separation by electrophoresis.
Series [2] deals with D283 cells. In words: FACS analysis of TUNEL-stained D283 cells (apoptosis). The settings on record: 12 hours, TUNEL FACS (DMSO 13%). How it is done: FIGS. 11A-11C. Effects of TSA on D283 cells. (FIG. 11A) Dose response curves of cell viability for D283 medulloblastoma cells treated with increasing doses of the HDAC inhibitor TSA. (FIG. 11B) FACs analysis of TUNEL-stained (BD Biosciences) D283 cells treated with TSA for 12 hours. FACs dot plots of cells with DMSO (i), and cells treated with 0.02 μM and 0.2 μM TSA (ii and iii).

In another series the test system is DKK1. Put plainly: qPCR of DKK1 expression after TSA. How it is done: The inventors identified genes by means of the microarray analysis. The results were verified by real time PCR (ABI) in D283 cells using Assay on demand gene expression reagents (ABI) for selected genes. Human Gus was used as the normalizer gene. Real-time PCR was performed on ABI PRISM 7900 HT detection system. Validated genes were assayed in normal brain and medulloblastoma patient samples.
as §1
In general terms: Quantitative PCR measures a nucleic acid by following its amplification.

In a further series the test system is RASSF1. In words: qPCR of RASSF1 mRNA after TSA. The settings on record: TSA 0.2 μM, D283, Daoy and MB 100 primary cells, n=3. As for the experimental part:
as §1

In series [3] the test system is D283 cells. In words: Whole genome expression microarray of TSA treated D283 cells. The settings on record: 0.2 μM TSA, 9 hours, q<0.001. How it is done: as §2
as §4, with “protocol. A total of three microarray hybridizations, one for each biological replicate, were performed per treatment.” for “protocol.”

Another series concerns Dkk 1. Put plainly: Expression microarray, TSA fold increase of Dkk1. The note with it: D283 medulloblastoma cells.
Description: as §2, §3, §4

For series [4], the system named is D283 cells. Put plainly: Colony formation assay on soft agar. The note with it: transfected D283 cells, after 3 weeks, p<0.001. How it is done: Wnt inhibitors were cloned into pcDNA3.1, D283 cells transfected and plated on agar. Colonies selected in G418. Total number of colonies formed on agar was counted for three separate experiments (FIG. 8).
Colony formation assays were performed on soft agar. Cells were plated at 1.5×10^5 per well using 6-well plates and transfected with pcDNA3.1D/V5-His-TOPO/DKK1, pcDNA3.1D/N5-His-TOPO/lacZ or pcDNA3.1D/V5-His-TOPO with no insert (mock control) using Trans It-Neural transfection reagents (Mirus). The cells were selected in G418 (1 mg/ml) supplemented media at 24 hr post transfection. The cells were simultaneously harvested to confirm their expression at the mRNA level by real-time PCR. G418 resistant cells were maintained for two weeks in culture. Cells were re-suspended in media containing 0.3% agarose and were overlaid on 0.6% agarose. 0.5 ml media was added to the plates every four days and colony formation was quantified after fixation and staining with methylene blue after 3 weeks.

On to `CC(/C=C/C(=O)NO)=C\[C@@H](C)C(=O)c1ccc(N(C)C)cc1` [TSA, Trichostatin A], for which the “p21 mRNA” value with p21 was “induction”. Further, in the series with WIF 1, the “TSA fold increase of WIF1” value is 2.5 fold. Moreover, the cell viability in [1] (0.1 μM TSA, 24 h, MTT assay) is given as 50%; in [1] (0.2 μM TSA, 9 hours) it was 100%; in series [1] (0.2 μm TSA, 24 h, MTT assay), 30%. In addition, the “cells committed to cell death by 24 hours” value in series [1] (0.2 μM TSA for 9 hours, washout) worked out at 85%. In addition, the surviving cells in series [1] (TSA exposure between 6 and 9 h, media replaced for additional 24 h) stood at 80%. Also, the “TSA fold increase of sFRP1” value in the series on sFRP 1 turned out to be 2.9 fold. In addition, the histone acetylation result in the series with histone acetylation was “robust histone acetylation”. Also, the apoptotic cells stood at 31% in the series on D283 cells [2] (0.02 μM TSA) and 79% in the series with D283 cells [2] (0.2 μM TSA). Also, the DKK1 expression result in the series with DKK1 (D283 cells, TSA 0.2 μm, qPCR) was “potently induces DKK1 expression”; with DKK1 (MB47, MB100, MB187 primary cells and D283, RT-PCR), “increased on TSA treatment”. The “RASSF1 mRNA” value in the series on RASSF1 is given as “induction”. In addition, in the series with D283 cells [3], the “number of genes induced at least 2-fold” value was 714. In the series on Dkk 1, the “TSA fold increase of Dkk1” value is 1.4 fold.

In the case of DKK1, the “fewer neo-resistant colonies than controls” value with D283 cells [4] was 60%.

A word on the cell viability: it is the share of living cells, or the viability signal relative to a control.
